The text below walks through data of US20250084056A1, “SUBSTITUTED OXOISOINDOLINYL PIPERIDINE-2,6-DIONE COMPOUNDS” (BRISTOL-MYERS SQUIBB COMPANY, priority 2023, published 2025).

Where only a bound is given, the exact number is not on record here.

What all share (assay type): cell-based
The target of assay [1] is Cyclin E1 (Homo sapiens, UniProt P24864+Q96SW2). The experiment in a line: Cyclin E1 Cellular Degradation Assay (MSD). Set-up: endogenous in cells; host or cells: OVCAR3. The following applies: for DC50 / Dmax: Cyclin E1 cellular degradation; for Dmax: maximum degradation; for Ratio of GSPT1 DC50/Cyclin E1 DC50: selectivity for degradation of Cyclin E1 over GSPT1. The procedure:
Culturing cells: On Day 0, OVCAR3 cells were plated at 15,000 cells/well in 40 μL of culture medium (RPMI1640, 20% FBS, 0.01 insulin, 1% Anti/Anti) in a 384 well cell culture plate. Cell cultures were incubated for 24 hours at 37° C. and 5% CO2.
Coating MSD plates: On Day 1, rabbit anti-CCNE1 antibody (Abcam ab33911, 1 μg/mL in DPBS, […]) was dispensed to a Meso Scale Discovery plate (MSD L21XA). The MSD plate was spun briefly to ensure the solution coated the bottom of the well and incubated overnight at 4° C. On Day 2, the plate was washed 3 times with TBS +0.2% TWEEN, blocked for 1 hour with 3% MSD Blocker A (MSD R93AA-1, 30 μL/well), then washed again 3 times with TBS+0.2% TWEEN.
Treating and lysing cells: On Day 1, compounds of interest were dispensed into the cell cultures by acoustic dispensing technology. The cell cultures were then spun at 400 g for 4 minutes to disperse the compounds and incubated at 37° C. and 5% CO2 for 24 hours. After incubation, 40 μL of DPBS was added to the cell cultures to dilute the media. All liquid was gently discarded and immediately replaced with 30 μL of lysis buffer (MSD Tris Lysis buffer (MSD R60TX-2), Halt Protease inhibitor (ThermoFisher 78438), Phosphatase Inhibitor II (Sigma-Aldrich P5726), Phosphatase Inhibitor III (Sigma-Aldrich P0044), 0.02M PMSF (Sigma-Aldrich 7626), 0.1% SDS (VWR E719-100ML)). The plate was then sealed, shaken at 300 rpm at room temperature for 5 minutes, and freeze-thawed for optimum cell lysis.
Collecting data: After thawing, 25 μL of lysate was transferred to a coated MSD plate. The plate was then sealed and shaken at 300 rpm overnight in 4° C. On Day 3, the MSD plate was washed 3 times with TBS+0.2% TWEEN. Mouse anti-CCNE1 antibody (Abcam ab238081, 0.5 μg/mL in 1% MSD Blocker A, 10 μL/well) dispensed to the MSD plate, which was then sealed and shaken at room temperature for 3 hours. After the first antibody incubation, the plate was washed 3 times with TBS+0.2% TWEEN, then goat anti-mouse Sulfo-Tag antibody (MSD R32AC, 1 μg/mL in 1% MSD Blocker A, 10 μL/well) was dispensed to the MSD plate. The plate was sealed again and shaken at room temperature for 1 hour, then washed 3 times with TBS+0.2% TWEEN. After the final wash, 35 μL of 1× Read Buffer (MSD R92TC-1) was added to each well and the data was captured using the MSD plate reader. The reference compound, [2-(2,6-dioxopiperidin-3-yl)-4-methoxy-3-oxo-2,3-dihydro-1H-isoindol-5-yl]methyl N-[4-(3,4-difluorophenoxy)phenyl]carbamate, at […] was used to define […]. Assay results for each compound were reported as DC50, the concentration giving 50% response, and Dmax, the maximum response observed with the compound.

Assay [2] concerns Phospho-Rb (Ser807/811). Put plainly: Phospho-Retinoblastoma (pRB) Cellular Assay. The settings on record: Homo sapiens, OVCAR-3, NIH OVCAR3 cells, 24 hours; for IC50: concentration giving 50% response; for Emax: maximum response, reference compound at 10 μM = 100%, read-out: pRB Ymax. The procedure: Phospho-Retinoblastoma (pRB) Cellular Assay
NIH OVCAR3 (HTB-161, American Type Culture Collection, Manassas VA) cells were grown up to passage 10 in culture media made up of RPMI (11835-030 Gibco, Grand Island NY), 20% HI FBS (16140-071, Gibco, Grand Island NY), and 0.01 mg/mL insulin from bovine pancreas (I6634-1G, Sigma Aldrich, St. Louis, MO).
The cells were seeded in a 384-well CulturPlate (6007688, Perkin Elmer, Waltham MA) at a density of 10,000 cells/well in 20 μL of the above culture media and incubated overnight at 37° C. and 5% CO2.
The next day, cells were treated using an Echo 650 (Beckman Coulter, Indianapolis IN) acoustic dispenser with 40 nL of compounds dissolved in DMSO at the appropriate serial dilutions (10 mM to […]). Cells were then incubated for 24 hours as above.
After 24 hours elapsed, media was removed from each well and shortly after 20 μL of the following mix was added: 12 μL deionized water, 4 μL lysis buffer, 4 μL of reconstituted antibody mix, and 1:100 phosphatase inhibitor. These components belong to the Phospho-Rb (Ser807/811) Cellular Kit (64RBS807PEY, Perkin Elmer, Waltham MA).
Plates were sealed and incubated away from light at room temperature for at least 4 hours before reading them on an EnVision plate reader (Perkin Elmer, Waltham MA) according to the kit manufacturer's protocol. The reference compound, N-(5-{[(5-tert-butyl-1,3-oxazol-2-yl)methyl]sulfanyl}-1,3-thiazol-2-yl)piperidine-4-carboxamide, at 10 μM was used to define 100% response. Assay results for each compound were reported as IC50, the concentration giving 50% response, and Ymax, the maximum response observed with the compound.

The target in assay [3] is GSPT1 (Homo sapiens, UniProt P15170+Q96SW2). The experiment in a line: GSPT1 Cellular Degradation Assay (DF15-GSPT1-ePL). Set-up: expressed in transfected cells. The following applies: DF15-GSPT1-ePL cells, 20 hours. From the text:
DF15-GSPT1-ePL was used for intracellular GSPT1 protein degradation detection in form of chemiluminescent signal, which was built on a human DF15 cell line (CVCL_Y429) with conditional co-expression of chimeric GSPT1 (target) and ePL/donor (enhanced ProLabel® by DiscoverX for enzyme fragment complementation with donor-acceptor pairing). The cells used the culture medium in two arrangements for assay and maintenance. During assay, it used Core-RPMI 1640 medium with 10% Fetal Bovine Serum (Heat Inactivated) and 1× Penicillin/Streptomycin; and during passage maintenance, used added ingredients: 0.1 mM NEAA, 1 mM sodium pyruvate, 25 mM Hepes, 0.1% Pluronic F-68, 1× Glutamin, 4 μg/mL Blasticidin (selection agent). Detection was performed on a 1536 well tissue culture plate (Corning #3727) with cells seeded in 3.5 μL core-RPMI 1640 at density of 0.25 million/mL after the pre-titrated test compounds in DMSO on ECHO plate were dispensed onto the assay plate by use of ECHO (liquid handing system via acoustic energy from Labcyte). Assay incubation lasted 20 hours in 37° C. incubator with 5% CO2; then followed by 30 minutes of plate-cooling at room temperature; then detection-reagent-mix was added in 3.5 μL/well with pre-defined proportion of enzyme acceptor, substrate, and lysis buffer. Plate signal reading for luminescence on an EnVision plate reader (PerkinElmer) was conducted after 60 minutes of former step at room temperature. Raw data was collected and processed with Dotmatics (data analyzer) for test compound's potency values. The reference compound, 3-[5-(3,6-dimethoxyisoquinolin-1-yl)-1-oxo-2,3-dihydro-1H-isoindol-2-yl]piperidine-2,6-dione, at […] was used to define 75% response. Assay results for each compound were reported as DC50, the concentration giving 50% response, and Dmax, the maximum response observed with the compound.

Cyclin E1, sequence (P24864 whole entry): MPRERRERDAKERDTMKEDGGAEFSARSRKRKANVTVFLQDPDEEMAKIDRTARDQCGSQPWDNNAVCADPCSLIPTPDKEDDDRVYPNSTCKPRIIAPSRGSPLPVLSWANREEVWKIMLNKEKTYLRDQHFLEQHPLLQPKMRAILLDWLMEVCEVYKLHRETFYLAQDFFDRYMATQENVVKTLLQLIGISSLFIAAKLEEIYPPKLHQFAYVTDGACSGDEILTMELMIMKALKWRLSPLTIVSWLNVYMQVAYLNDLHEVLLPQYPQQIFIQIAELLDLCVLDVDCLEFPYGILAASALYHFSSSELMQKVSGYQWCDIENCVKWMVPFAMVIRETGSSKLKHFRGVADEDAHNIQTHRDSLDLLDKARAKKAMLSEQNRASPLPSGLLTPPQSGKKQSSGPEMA
Cyclin E1, sequence (Q96SW2 whole entry): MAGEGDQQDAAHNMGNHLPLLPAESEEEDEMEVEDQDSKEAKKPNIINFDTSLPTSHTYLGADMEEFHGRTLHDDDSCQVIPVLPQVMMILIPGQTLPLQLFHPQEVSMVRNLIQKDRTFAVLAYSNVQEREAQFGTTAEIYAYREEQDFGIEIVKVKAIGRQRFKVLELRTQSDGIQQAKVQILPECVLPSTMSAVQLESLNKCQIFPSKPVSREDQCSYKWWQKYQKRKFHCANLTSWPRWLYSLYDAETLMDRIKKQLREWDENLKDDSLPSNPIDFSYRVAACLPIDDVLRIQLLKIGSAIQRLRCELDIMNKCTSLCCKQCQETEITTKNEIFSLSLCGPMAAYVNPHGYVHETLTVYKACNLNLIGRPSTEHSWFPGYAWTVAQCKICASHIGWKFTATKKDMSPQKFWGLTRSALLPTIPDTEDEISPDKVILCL
Cyclin E1, sequence (Q16531 whole entry partner): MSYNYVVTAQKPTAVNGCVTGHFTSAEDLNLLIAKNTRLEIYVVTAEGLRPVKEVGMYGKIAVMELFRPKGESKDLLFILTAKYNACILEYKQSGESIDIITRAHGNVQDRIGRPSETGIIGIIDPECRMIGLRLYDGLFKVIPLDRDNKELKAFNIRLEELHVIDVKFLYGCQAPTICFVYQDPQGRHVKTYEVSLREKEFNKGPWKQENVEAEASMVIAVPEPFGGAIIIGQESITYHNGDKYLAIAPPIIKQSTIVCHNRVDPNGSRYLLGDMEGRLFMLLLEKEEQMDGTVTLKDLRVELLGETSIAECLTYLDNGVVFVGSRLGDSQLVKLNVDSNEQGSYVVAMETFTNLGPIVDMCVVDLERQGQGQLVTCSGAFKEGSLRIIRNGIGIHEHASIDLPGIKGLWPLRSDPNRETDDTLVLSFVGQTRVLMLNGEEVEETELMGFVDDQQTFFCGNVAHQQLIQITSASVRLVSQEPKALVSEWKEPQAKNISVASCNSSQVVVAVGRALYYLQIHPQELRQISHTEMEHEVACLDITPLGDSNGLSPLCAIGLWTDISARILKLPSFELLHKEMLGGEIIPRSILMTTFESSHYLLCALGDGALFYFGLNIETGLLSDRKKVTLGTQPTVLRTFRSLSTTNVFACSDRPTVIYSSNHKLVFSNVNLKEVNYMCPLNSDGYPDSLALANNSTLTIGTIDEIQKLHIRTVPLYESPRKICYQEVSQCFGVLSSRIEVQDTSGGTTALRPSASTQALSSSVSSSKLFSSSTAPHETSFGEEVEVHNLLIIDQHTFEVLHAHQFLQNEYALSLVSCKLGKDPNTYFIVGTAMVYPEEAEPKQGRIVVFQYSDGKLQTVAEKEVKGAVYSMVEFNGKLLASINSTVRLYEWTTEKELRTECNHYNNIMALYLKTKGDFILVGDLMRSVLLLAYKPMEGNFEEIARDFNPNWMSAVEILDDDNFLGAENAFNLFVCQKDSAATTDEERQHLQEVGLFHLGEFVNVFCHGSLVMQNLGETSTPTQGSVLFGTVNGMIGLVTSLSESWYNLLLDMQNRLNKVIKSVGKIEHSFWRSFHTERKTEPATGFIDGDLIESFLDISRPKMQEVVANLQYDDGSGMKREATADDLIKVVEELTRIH
GSPT1, sequence (P15170 whole entry, the tested form may be a part): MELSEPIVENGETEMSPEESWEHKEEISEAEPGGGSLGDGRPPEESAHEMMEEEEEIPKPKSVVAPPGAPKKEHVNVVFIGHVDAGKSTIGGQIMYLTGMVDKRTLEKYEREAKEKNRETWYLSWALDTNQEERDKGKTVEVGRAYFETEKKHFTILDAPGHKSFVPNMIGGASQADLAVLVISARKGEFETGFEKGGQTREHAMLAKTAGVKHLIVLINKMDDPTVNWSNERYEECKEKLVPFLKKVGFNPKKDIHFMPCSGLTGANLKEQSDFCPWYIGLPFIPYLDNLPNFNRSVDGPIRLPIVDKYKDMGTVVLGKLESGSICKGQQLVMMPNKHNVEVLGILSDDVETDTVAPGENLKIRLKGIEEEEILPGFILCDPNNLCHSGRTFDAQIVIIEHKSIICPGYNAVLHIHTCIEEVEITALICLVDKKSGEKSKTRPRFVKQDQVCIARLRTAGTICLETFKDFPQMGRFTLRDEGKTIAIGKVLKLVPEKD
GSPT1, sequence (Q96SW2 whole entry, the tested form may be a part): as the sequence (Q96SW2 whole entry) above
GSPT1, sequence (Q16531 whole entry partner, the tested form may be a part): as the sequence (Q16531 whole entry partner) above

Turning to `COc1c(COC(=O)Nc2ccc(Oc3cc(F)cc(F)c3)cc2)ccc2c1C(=O)N(C1CCC(=O)NC1=O)C2` (centres unmarked) [Example 13, [2-(2,6-dioxopiperidin-3-yl)-4-methoxy-3-oxo-2,3-dihydro-1H-isoindol-5-yl]methyl N-[4-(3,5-difluorophenoxy)phenyl]carbamate], in assay [1], the DC50 was determined as 55 nM, the Dmax was 113% and the “Ratio of GSPT1 DC50/Cyclin E1 DC50” value is above 254. Besides, in assay [2], the IC50 is 278 nM and the Emax was 97%. In assay [3], the 50% degradation concentration (DC50) was above 14000 nM and the Dmax was determined as 7%.
Consider `COc1c(COC(=O)Nc2ccc(Oc3ccc(F)c(Cl)c3)cc2)ccc2c1C(=O)N(C1CCC(=O)NC1=O)C2` (centres unmarked) [Example 14, [2-(2,6-dioxopiperidin-3-yl)-4-methoxy-3-oxo-2,3-dihydro-1H-isoindol-5-yl]methyl N-[4-(3-chloro-4-fluorophenoxy)phenyl]carbamate], for which, in assay [1], the DC50 was 59 nM, the Dmax turned out to be 108% and the “Ratio of GSPT1 DC50/Cyclin E1 DC50” value is reported as above 239. In assay [2], inhibition was half-maximal at 363 nM (IC50) and the Emax was 96%. Moreover, in assay [3], the half-maximal degradation concentration (DC50) is above 14000 nM and the Dmax is 43%.
On to `COc1c(COC(=O)Nc2ccc(Oc3cc(F)c(F)c(F)c3)cc2F)ccc2c1C(=O)N(C1CCC(=O)NC1=O)C2` (centres unmarked) [Example 15, [2-(2,6-dioxopiperidin-3-yl)-4-methoxy-3-oxo-2,3-dihydro-1H-isoindol-5-yl]methyl N-[2-fluoro-4-(3,4,5-trifluorophenoxy)phenyl]carbamate], for which, in assay [1], it took 35 nM to reach half-maximal degradation (DC50), the Dmax was 109% and the “Ratio of GSPT1 DC50/Cyclin E1 DC50” value is on record as above 395. Further, in assay [2], the IC50 was determined as 127 nM and the Emax is 109%. Also, in assay [3], the 50% degradation concentration (DC50) was above 14000 nM and the Dmax turned out to be 48%.
Take `COc1c(COC(=O)Nc2ccc(Oc3cccc(F)c3)cc2F)ccc2c1C(=O)N(C1CCC(=O)NC1=O)C2` (centres unmarked) [Example 16, [2-(2,6-dioxopiperidin-3-yl)-4-methoxy-3-oxo-2,3-dihydro-1H-isoindol-5-yl]methyl N-[2-fluoro-4-(3-fluorophenoxy)phenyl]carbamate]: in assay [1], the DC50 was found to be 161 nM, the Dmax was determined as 107% and the “Ratio of GSPT1 DC50/Cyclin E1 DC50” value is recorded as above 87. For the same compound, in assay [2], half-maximal inhibition (IC50) was put at 130 nM and the Emax came out at 105%. Also, in assay [3], the DC50 is above 14000 nM and the Dmax came to 46%.
As for `COc1c(COC(=O)Nc2ccc(Cc3ccc(F)c(F)c3)cc2)ccc2c1C(=O)N(C1CCC(=O)NC1=O)C2` (centres unmarked) [Example 17, [2-(2,6-dioxopiperidin-3-yl)-4-methoxy-3-oxo-2,3-dihydro-1H-isoindol-5-yl]methyl N-{4-[(3,4-difluorophenyl)methyl]phenyl}carbamate], in assay [1], the half-maximal degradation concentration (DC50) came out at 447 nM, the Dmax was found to be 99% and the “Ratio of GSPT1 DC50/Cyclin E1 DC50” value was above 31. Further, in assay [2], the concentration for half-maximal inhibition (IC50) stood at 225 nM and the Emax was 114%. In assay [3], the DC50 was above 14000 nM and the Dmax came to 15%.
As to `COc1c(COC(=O)Nc2ccc(Cc3ccc(F)c(F)c3)cc2C)ccc2c1C(=O)N(C1CCC(=O)NC1=O)C2` (centres unmarked) [Example 18, [2-(2,6-dioxopiperidin-3-yl)-4-methoxy-3-oxo-2,3-dihydro-1H-isoindol-5-yl]methyl N-{4-[(3,4-difluorophenyl)methyl]-2-methylphenyl}carbamate], in assay [1], half-maximal degradation (DC50) was put at 89 nM, the Dmax came out at 100% and the “Ratio of GSPT1 DC50/Cyclin E1 DC50” value is given as above 157. In assay [2], the half-maximal inhibitory concentration (IC50) came out at 85 nM and the Emax came out at 110%. In assay [3], the 50% degradation concentration (DC50) is above 14000 nM and the Dmax was determined as 13%.
Take `COc1c(COC(=O)Nc2ccc(Cc3cc(F)c(F)c(F)c3)cc2)ccc2c1C(=O)N(C1CCC(=O)NC1=O)C2` (centres unmarked) [Example 19, [2-(2,6-dioxopiperidin-3-yl)-4-methoxy-3-oxo-2,3-dihydro-1H-isoindol-5-yl]methyl N-{4-[(3,4,5-trifluorophenyl)methyl]phenyl}carbamate]: in assay [1], the DC50 stood at 146 nM, the Dmax is 105% and the “Ratio of GSPT1 DC50/Cyclin E1 DC50” value was above 96. Also, in assay [2], the 50% inhibitory concentration (IC50) was determined as 701 nM and the Emax is 92%. Also, in assay [3], the DC50 was above 14000 nM and the Dmax came to 9%.
On to `COc1c(COC(=O)Nc2ccc(Cc3cccc(F)c3)cc2F)ccc2c1C(=O)N(C1CCC(=O)NC1=O)C2` (centres unmarked) [Example 20, [2-(2,6-dioxopiperidin-3-yl)-4-methoxy-3-oxo-2,3-dihydro-1H-isoindol-5-yl]methyl N-{2-fluoro-4-[(3-fluorophenyl)methyl]phenyl}carbamate], for which, in assay [1], it took 96 nM to reach half-maximal degradation (DC50), the Dmax was 101% and the “Ratio of GSPT1 DC50/Cyclin E1 DC50” value is reported as above 146. In assay [2], the half-inhibitory concentration (IC50) came out at 440 nM and the Emax came to 103%. In addition, in assay [3], the DC50 was above 14000 nM and the Dmax was determined as 11%.

One may read the DC50 as the concentration giving 50% degradation. A lower DC50 goes with degradation at low concentration. As a reminder, the Dmax is the greatest extent of degradation seen. What is called IC50 is the concentration that gives 50% inhibition. Read a high IC50 as weaker potency.
